Data as given in US11154529B2, “Phosphaplatin liquid formulations” (Phosplatin Therapeutics Inc., priority 2016, dated 2021).

How the values were obtained:
[1] = Ready-to-use formulation stability at 2-8° C., 5 mg/mL (R,R)-pyrodach-2 in 10 mM Bicarbonate Buffer at pH 8.6, 10 mL vials; format: physicochemical
[2] = Reversal of PT-112 dimer formation by added pyrophosphate in 5 mg/mL aqueous PT-112 solution at ambient temperature; format: physicochemical
Description: Evidence that added pyrophosphate reverses the formation of PT-112 dimer in aqueous formulations of PT-112 was shown in the following experiment. A 5 mg/mL aqueous solution of PT-112 was prepared by dissolving PT-112 in 10 mM potassium phosphate buffer containing added potassium hydroxide such that the final solution pH was ˜6.5. […] The decrease was not accompanied by the formation of the RRT 3.1-3.2 impurity; nor the formation of any new impurities, rather an increase in the concentration of PT-112 was observed.

O=P1(O)OP(=O)(O)[O][Pt]2([NH][C@@H]3CCCC[C@H]3[NH]2)[O]1 (stereo partly drawn) [(R,R)-pyrodach-2, (R,R)-trans-1,2-cyclohexanediamine-(dihydrogenpyrophosphato)platinum(II)]
Potency (Assay) ([1]; 1 month): 99.1%
Purity (% Area) ([1]; 1 month): 97.85%
Unknown Impurities RRT~0.29 ([1]; 1 month): 0.14%
Unknown Impurities RRT~0.35 ([1]; 1 month): ND (ND = Not Detected, or <0.05%)
Unknown Impurities RRT~0.41 ([1]; 1 month): 0.05%
Unknown Impurities RRT~0.49 ([1]; 1 month): 0.55%
Unknown Impurities RRT~0.59 ([1]; 1 month): 0.08%
Unknown Impurities RRT~0.73 ([1]; 1 month): 1.14%
Unknown Impurities RRT~1.51 ([1]; 1 month): ND (ND = Not Detected, or <0.05%)
Unknown Impurities RRT~2.82 ([1]; 1 month): ND (ND = Not Detected, or <0.05%)
Unknown Impurities RRT~3.44 ([1]; 1 month): ND (ND = Not Detected, or <0.05%)
pH ([1]; 1 month): 8.73
Potency (Assay) ([1]; 1 week): 101.9%
Purity (% Area) ([1]; 1 week): 98.02%
Unknown Impurities RRT~0.29 ([1]; 1 week): 0.10%
Unknown Impurities RRT~0.35 ([1]; 1 week): ND (ND = Not Detected, or <0.05%)
Unknown Impurities RRT~0.41 ([1]; 1 week): ND (ND = Not Detected, or <0.05%)
Unknown Impurities RRT~0.49 ([1]; 1 week): 0.60%
Unknown Impurities RRT~0.59 ([1]; 1 week): ND (ND = Not Detected, or <0.05%)
Unknown Impurities RRT~0.73 ([1]; 1 week): 1.11%
Unknown Impurities RRT~1.51 ([1]; 1 week): ND (ND = Not Detected, or <0.05%)
Unknown Impurities RRT~2.82 ([1]; 1 week): ND (ND = Not Detected, or <0.05%)
Unknown Impurities RRT~3.44 ([1]; 1 week): ND (ND = Not Detected, or <0.05%)
pH ([1]; 1 week): 8.57
Potency (Assay) ([1]; 2 month): 102.4%
Purity (% Area) ([1]; 2 month): 97.58%
Unknown Impurities RRT~0.29 ([1]; 2 month): 0.21%
Unknown Impurities RRT~0.35 ([1]; 2 month): ND (ND = Not Detected, or <0.05%)
Unknown Impurities RRT~0.41 ([1]; 2 month): 0.11%
Unknown Impurities RRT~0.49 ([1]; 2 month): 0.62%
Unknown Impurities RRT~0.59 ([1]; 2 month): 0.15%
Unknown Impurities RRT~0.73 ([1]; 2 month): 1.03%
Unknown Impurities RRT~1.51 ([1]; 2 month): ND (ND = Not Detected, or <0.05%)
Unknown Impurities RRT~2.82 ([1]; 2 month): ND (ND = Not Detected, or <0.05%)
Unknown Impurities RRT~3.44 ([1]; 2 month): 0.06%
pH ([1]; 2 month): 8.76
Potency (Assay) ([1]; 2 week): 100.5%
Purity (% Area) ([1]; 2 week): 97.99%
Unknown Impurities RRT~0.29 ([1]; 2 week): 0.12%
Unknown Impurities RRT~0.35 ([1]; 2 week): ND (ND = Not Detected, or <0.05%)
Unknown Impurities RRT~0.41 ([1]; 2 week): ND (ND = Not Detected, or <0.05%)
Unknown Impurities RRT~0.49 ([1]; 2 week): 0.63%
Unknown Impurities RRT~0.59 ([1]; 2 week): 0.06%
Unknown Impurities RRT~0.73 ([1]; 2 week): 1.14%
Unknown Impurities RRT~1.51 ([1]; 2 week): ND (ND = Not Detected, or <0.05%)
Unknown Impurities RRT~2.82 ([1]; 2 week): ND (ND = Not Detected, or <0.05%)
Unknown Impurities RRT~3.44 ([1]; 2 week): ND (ND = Not Detected, or <0.05%)
pH ([1]; 2 week): 8.65
Potency (Assay) ([1]; 3 month): 102.3%
Purity (% Area) ([1]; 3 month): 97.76%
Unknown Impurities RRT~0.29 ([1]; 3 month): 0.29%
Unknown Impurities RRT~0.35 ([1]; 3 month): ND (ND = Not Detected, or <0.05%)
Unknown Impurities RRT~0.41 ([1]; 3 month): 0.13%
Unknown Impurities RRT~0.49 ([1]; 3 month): 0.53%
Unknown Impurities RRT~0.59 ([1]; 3 month): 0.15%
Unknown Impurities RRT~0.73 ([1]; 3 month): 0.89%
Unknown Impurities RRT~1.51 ([1]; 3 month): 0.06%
Unknown Impurities RRT~2.82 ([1]; 3 month): 0.05%
Unknown Impurities RRT~3.44 ([1]; 3 month): ND (ND = Not Detected, or <0.05%)
pH ([1]; 3 month): 8.95
Potency (Assay) ([1]; 3 week): 100.0%
Purity (% Area) ([1]; 3 week): 97.91%
Unknown Impurities RRT~0.29 ([1]; 3 week): 0.14%
Unknown Impurities RRT~0.35 ([1]; 3 week): ND (ND = Not Detected, or <0.05%)
Unknown Impurities RRT~0.41 ([1]; 3 week): ND (ND = Not Detected, or <0.05%)
Unknown Impurities RRT~0.49 ([1]; 3 week): 0.56%
Unknown Impurities RRT~0.59 ([1]; 3 week): 0.07%
Unknown Impurities RRT~0.73 ([1]; 3 week): 1.11%
Unknown Impurities RRT~1.51 ([1]; 3 week): ND (ND = Not Detected, or <0.05%)
Unknown Impurities RRT~2.82 ([1]; 3 week): ND (ND = Not Detected, or <0.05%)
Unknown Impurities RRT~3.44 ([1]; 3 week): ND (ND = Not Detected, or <0.05%)
pH ([1]; 3 week): 8.67
Potency (Assay) ([1]; 4 month): 103.5%
Purity (% Area) ([1]; 4 month): 98.07%
Unknown Impurities RRT~0.29 ([1]; 4 month): 0.15%
Unknown Impurities RRT~0.35 ([1]; 4 month): ND (ND = Not Detected, or <0.05%)
Unknown Impurities RRT~0.41 ([1]; 4 month): 0.16%
Unknown Impurities RRT~0.49 ([1]; 4 month): 0.68%
Unknown Impurities RRT~0.59 ([1]; 4 month): 0.09%
Unknown Impurities RRT~0.73 ([1]; 4 month): 0.72%
Unknown Impurities RRT~1.51 ([1]; 4 month): 0.05%
Unknown Impurities RRT~2.82 ([1]; 4 month): 0.05%
Unknown Impurities RRT~3.44 ([1]; 4 month): ND (ND = Not Detected, or <0.05%)
pH ([1]; 4 month): 8.83
Potency (Assay) ([1]; 6 month): 100.4%
Purity (% Area) ([1]; 6 month): 97.56%
Unknown Impurities RRT~0.29 ([1]; 6 month): 0.23%
Unknown Impurities RRT~0.35 ([1]; 6 month): ND (ND = Not Detected, or <0.05%)
Unknown Impurities RRT~0.41 ([1]; 6 month): 0.23%
Unknown Impurities RRT~0.49 ([1]; 6 month): 0.65%
Unknown Impurities RRT~0.59 ([1]; 6 month): 0.21%
Unknown Impurities RRT~0.73 ([1]; 6 month): 0.90%
Unknown Impurities RRT~1.51 ([1]; 6 month): ND (ND = Not Detected, or <0.05%)
Unknown Impurities RRT~2.82 ([1]; 6 month): ND (ND = Not Detected, or <0.05%)
Unknown Impurities RRT~3.44 ([1]; 6 month): 0.09%
pH ([1]; 6 month): 8.84
Potency (Assay) ([1]; 9 month): 102.2%
Purity (% Area) ([1]; 9 month): 97.73%
Unknown Impurities RRT~0.29 ([1]; 9 month): 0.15%
Unknown Impurities RRT~0.35 ([1]; 9 month): ND (ND = Not Detected, or <0.05%)
Unknown Impurities RRT~0.41 ([1]; 9 month): 0.33%
Unknown Impurities RRT~0.49 ([1]; 9 month): 0.58%
Unknown Impurities RRT~0.59 ([1]; 9 month): 0.24%
Unknown Impurities RRT~0.73 ([1]; 9 month): 0.43%
Unknown Impurities RRT~1.51 ([1]; 9 month): 0.05%
Unknown Impurities RRT~2.82 ([1]; 9 month): 0.13%
Unknown Impurities RRT~3.44 ([1]; 9 month): 0.16%
pH ([1]; 9 month): 9.07
Potency (Assay) ([1]; 12 month): 100.3%
Purity (% Area) ([1]; 12 month): 96.64%
Unknown Impurities RRT~0.29 ([1]; 12 month): 0.13%
Unknown Impurities RRT~0.35 ([1]; 12 month): 0.05%
Unknown Impurities RRT~0.41 ([1]; 12 month): 0.47%
Unknown Impurities RRT~0.49 ([1]; 12 month): 0.64%
Unknown Impurities RRT~0.59 ([1]; 12 month): 0.27%
Unknown Impurities RRT~0.73 ([1]; 12 month): 0.98%
Unknown Impurities RRT~1.51 ([1]; 12 month): ND (ND = Not Detected, or <0.05%)
Unknown Impurities RRT~2.82 ([1]; 12 month): 0.19%
Unknown Impurities RRT~3.44 ([1]; 12 month): 0.28%
pH ([1]; 12 month): 8.97
Potency (Assay) ([1]; Initial): 100.3%
Purity (% Area) ([1]; Initial): 98.04%
Unknown Impurities RRT~0.29 ([1]; Initial): 0.11%
Unknown Impurities RRT~0.35 ([1]; Initial): ND (ND = Not Detected, or <0.05%)
Unknown Impurities RRT~0.41 ([1]; Initial): ND (ND = Not Detected, or <0.05%)
Unknown Impurities RRT~0.49 ([1]; Initial): 0.62%
Unknown Impurities RRT~0.59 ([1]; Initial): ND (ND = Not Detected, or <0.05%)
Unknown Impurities RRT~0.73 ([1]; Initial): 1.05%
Unknown Impurities RRT~1.51 ([1]; Initial): ND (ND = Not Detected, or <0.05%)
Unknown Impurities RRT~2.82 ([1]; Initial): ND (ND = Not Detected, or <0.05%)
Unknown Impurities RRT~3.44 ([1]; Initial): ND (ND = Not Detected, or <0.05%)
pH ([1]; Initial): 8.60
PT-112 dimer level ([2]; 5 mg/mL in 10 mM potassium phosphate, pH ~6.5, about 24 hours at ambient temperature): about 1.02%
PT-112 dimer level ([2]; adjusted to ~pH 7.5 plus 0.5 eq. of pyrophosphate, after 9 days at ambient temperature): effectively non-detectable level
PT-112 dimer concentration ([2]; adjusted to ~pH 7.5 with potassium hydroxide, 7 day period at ambient temperature, no pyrophosphate): progressively decrease
PT-112 dimer level ([2]; in the API): about 0.33%
